Reference: US5519028A, “Antiviral preparations” (priority 1992, dated 1996)

What was measured:
Type in all cases: cell-based, human
IL-1β = IL-1β production by monocytes of normal donors; details: 1000 U/ml, 48 hours; except donor #10
Description: (§1) The effects of flavopereirine on the production of primary (IL-1β and TNF-α) and secondary (IL-6) cytokines by monocytes was also tested. The adhesive monocytes used were taken from the blood of two types of donors:
(§2) Normal donors--voluntary blood donors who attended the blood bank of the Pitie-Salpetriere Hospital, Paris, France; and
(§3) Product H was not used in these experiments at a rate of more than 20 μg/ml water, since above this rate, net toxicity could have been produced.

TNF-α = TNF-α production by monocytes of normal donors; details: 1000 U/ml, 48 hours
Description: as §1, §2, §3

interleukin-6 = assay: IL-6 production by monocytes of HIV-positive donors
Description: as §1
HIV-positive donors from medical consultations. These individuals were in the early stages of HIV infection and, at the moment of taking the blood, were not undergoing any treatment. The risk factors involved were intravenous drug abuse for six of the donors, sexual transmission for three and blood transfusion (in Zaire) for one patient. No correlation was found between the risk factors and the results of the experiments.
The response of the monocytes taken from the various HIV-positive donors was tested in terms of spontaneous response. The quantities of cells received were low (the donors were not affected by cytapheresy), and the experiments were therefore limited by the number of cells available.
Interleukin-4 was used at the same time as flavopereirine H, since it has been shown prior to these experiments that this cytokine blocks the spontaneous production of interleukin-6 in certain HIV-positive patients.
In five cases, […] was used for comparison, since this, too, blocks the production of IL-6 in normal monocytes stimulated by LPS.

interferon: stimulation of monocytes over a period of 48 hours with interferon (1000 U/ml) [reference compound]
production of primary cytokines (IL-1β) (IL-1β): did not cause any production of primary cytokines, except in donor #10 in 1L-1β
production of primary cytokines (TNF-α) (TNF-α): did not cause any production of primary cytokines

Interleukin-9: blocks the production of IL-6 in normal monocytes stimulated by LPS
compound effect with interleukin-4 on IL-6 production (interleukin-6; combined with interleukin-4, five cases): never has a compound effect to that of interleukin-4
maximum inhibition of spontaneous production of IL-6 (interleukin-6; five cases): ≤ 50%

B1: Interleukin-4: cytokine that blocks the spontaneous production of interleukin-6 in certain HIV-positive patients (protein, UniProt P05112 25-153, looked up)
Interleukin-4: HKCDITLQEIIKTLNSLTEQKTLCTELTVTDIFAASKNTTEKETFCRAATVLRQFYSHHEKDTRCLGATAQQFHRHKQLIRFLKRLDRNLWGLAGLNSCPVKEANQSTLENFLERLKTIMREKYSKCSS
inhibition of production of IL-6 (interleukin-6; alone, never total, p<0.05): inhibited the production of IL-6, but this inhibition was never total
